ChEMBL document CHEMBL1275320, “Positive allosteric modulators of the α-amino-3-hydroxy-5-methyl-4-isoxazolepropionic acid (AMPA) receptor” (J Med Chem, 2010)
pEC50: −log10 of the molar value. Several values for one entry are separate records, joined by “and”; a condition that tells them apart may be missing. Equal entries are not always repeated.

Experiments:
Glutamate receptor 2 [1] = target: T1, Glutamate receptor 2 (Homo sapiens, UniProt P42262); experiment: Agonist activity at GluR2 receptor; format: functional
[2] = Agonist activity at AMPA receptor at 30 uM by FLIPR assay; format: functional
Glutamate receptor 1 = Glutamate receptor 1 (Homo sapiens, UniProt P42261); experiment: Inhibition of GluR1 expressed in HEK cells; format: cell-based, HEK293
Chain of Glutamate receptor 1 (P42261 whole entry): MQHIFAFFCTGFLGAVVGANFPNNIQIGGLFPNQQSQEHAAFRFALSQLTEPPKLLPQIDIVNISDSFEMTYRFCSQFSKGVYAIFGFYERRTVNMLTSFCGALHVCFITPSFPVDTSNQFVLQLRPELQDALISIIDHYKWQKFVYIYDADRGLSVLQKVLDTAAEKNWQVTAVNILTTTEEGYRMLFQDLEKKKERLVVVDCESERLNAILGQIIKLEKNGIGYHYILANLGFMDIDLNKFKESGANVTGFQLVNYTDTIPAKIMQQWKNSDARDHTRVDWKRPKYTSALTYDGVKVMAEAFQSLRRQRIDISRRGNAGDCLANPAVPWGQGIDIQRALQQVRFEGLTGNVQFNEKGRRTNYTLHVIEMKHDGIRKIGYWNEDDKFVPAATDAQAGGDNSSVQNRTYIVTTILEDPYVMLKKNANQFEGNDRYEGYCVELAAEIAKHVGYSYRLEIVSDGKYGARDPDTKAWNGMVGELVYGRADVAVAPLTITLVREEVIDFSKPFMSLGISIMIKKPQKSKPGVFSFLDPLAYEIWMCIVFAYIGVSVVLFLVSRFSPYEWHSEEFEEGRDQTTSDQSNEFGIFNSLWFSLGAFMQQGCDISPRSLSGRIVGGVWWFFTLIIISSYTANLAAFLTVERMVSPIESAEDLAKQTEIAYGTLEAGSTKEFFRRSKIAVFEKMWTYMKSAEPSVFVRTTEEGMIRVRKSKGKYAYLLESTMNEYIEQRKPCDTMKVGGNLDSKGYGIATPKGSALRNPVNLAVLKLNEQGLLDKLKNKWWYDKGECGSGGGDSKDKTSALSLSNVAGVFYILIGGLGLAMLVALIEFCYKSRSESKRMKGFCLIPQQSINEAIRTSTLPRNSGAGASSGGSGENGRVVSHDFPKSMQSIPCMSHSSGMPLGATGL

Glutamate receptor 2 [3] = target: T1, Glutamate receptor 2; experiment: Inhibition of GluR2 expressed in HEK cells at 3 uM; format: cell-based; conditions: HEK293
Glutamate receptor 2 [4] = target: T1, Glutamate receptor 2; experiment: Inhibition of human recombinant GluR2
Glutamate receptor 4 [5] = target: Glutamate receptor 4 (Homo sapiens, UniProt P48058); experiment: Inhibition of GluR4 expressed in HEK293 cells; format: cell-based
Chain of Glutamate receptor 4 (Homo sapiens, UniProt P48058) (P48058 whole entry): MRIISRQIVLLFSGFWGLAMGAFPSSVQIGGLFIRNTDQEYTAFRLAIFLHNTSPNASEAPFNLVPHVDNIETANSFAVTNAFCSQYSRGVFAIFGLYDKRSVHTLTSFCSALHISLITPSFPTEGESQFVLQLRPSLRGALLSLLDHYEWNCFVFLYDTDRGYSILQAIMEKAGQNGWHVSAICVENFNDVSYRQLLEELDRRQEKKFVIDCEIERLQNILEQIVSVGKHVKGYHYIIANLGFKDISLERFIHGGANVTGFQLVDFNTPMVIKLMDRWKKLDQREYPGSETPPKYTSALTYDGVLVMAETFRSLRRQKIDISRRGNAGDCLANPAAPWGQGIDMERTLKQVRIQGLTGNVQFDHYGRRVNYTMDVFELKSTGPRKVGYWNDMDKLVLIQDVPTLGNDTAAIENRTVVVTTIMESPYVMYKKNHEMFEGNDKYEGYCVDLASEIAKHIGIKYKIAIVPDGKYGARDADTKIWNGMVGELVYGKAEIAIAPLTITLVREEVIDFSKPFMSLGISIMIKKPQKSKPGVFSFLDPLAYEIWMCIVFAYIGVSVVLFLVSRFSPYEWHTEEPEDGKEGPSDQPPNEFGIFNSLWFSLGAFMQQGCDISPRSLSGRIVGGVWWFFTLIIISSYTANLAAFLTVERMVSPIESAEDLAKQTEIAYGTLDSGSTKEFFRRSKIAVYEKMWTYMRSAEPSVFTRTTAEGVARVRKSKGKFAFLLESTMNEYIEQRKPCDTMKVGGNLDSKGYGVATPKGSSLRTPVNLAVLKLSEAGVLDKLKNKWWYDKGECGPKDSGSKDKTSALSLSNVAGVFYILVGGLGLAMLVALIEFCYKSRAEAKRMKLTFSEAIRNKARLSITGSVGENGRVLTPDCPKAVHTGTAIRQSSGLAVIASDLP

Glutamate receptor 2 [6] = target: T1, Glutamate receptor 2; experiment: Inhibition of GluR2 flop expressed in HEK cells; format: cell-based, HEK293
[7] = Agonist activity at AMPA receptor by FLIPR assay; format: functional
Glutamate receptor 3 = Glutamate receptor 3 (Homo sapiens, UniProt P42263); experiment: Inhibition of GluR3 expressed in HEK cells; format: cell-based, HEK293
Chain of Glutamate receptor 3 (P42263 whole entry): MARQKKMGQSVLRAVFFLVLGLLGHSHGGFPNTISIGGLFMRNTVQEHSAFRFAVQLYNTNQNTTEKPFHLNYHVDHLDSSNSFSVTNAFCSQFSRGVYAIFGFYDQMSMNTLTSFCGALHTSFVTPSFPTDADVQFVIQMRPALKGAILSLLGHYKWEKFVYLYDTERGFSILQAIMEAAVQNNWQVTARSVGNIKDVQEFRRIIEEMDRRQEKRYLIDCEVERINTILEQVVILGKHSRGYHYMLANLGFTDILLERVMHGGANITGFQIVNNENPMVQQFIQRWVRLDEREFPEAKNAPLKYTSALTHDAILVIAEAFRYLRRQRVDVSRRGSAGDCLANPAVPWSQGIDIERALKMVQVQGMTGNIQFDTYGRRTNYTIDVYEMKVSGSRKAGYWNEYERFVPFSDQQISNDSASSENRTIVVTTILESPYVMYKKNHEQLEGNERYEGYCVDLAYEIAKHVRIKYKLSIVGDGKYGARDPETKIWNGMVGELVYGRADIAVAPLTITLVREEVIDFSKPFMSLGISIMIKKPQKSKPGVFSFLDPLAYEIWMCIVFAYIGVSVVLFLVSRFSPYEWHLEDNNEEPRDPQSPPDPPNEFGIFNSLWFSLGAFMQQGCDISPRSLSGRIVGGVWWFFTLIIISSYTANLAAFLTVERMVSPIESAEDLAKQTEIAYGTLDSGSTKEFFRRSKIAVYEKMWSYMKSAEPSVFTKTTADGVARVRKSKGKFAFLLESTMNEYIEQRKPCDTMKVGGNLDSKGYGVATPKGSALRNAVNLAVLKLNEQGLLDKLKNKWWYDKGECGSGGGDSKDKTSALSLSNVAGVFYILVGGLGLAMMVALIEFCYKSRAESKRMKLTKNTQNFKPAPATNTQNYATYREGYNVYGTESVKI

[8] = target: Glutamate receptor AMPA 3/4 (Rattus norvegicus, UniProt P19492+P19493); experiment: Inhibition of GluR3/4 rat in hippocampal neuron; format: tissue-based, Hippocampus
Chain of Glutamate receptor AMPA 3/4 (Rattus norvegicus, UniProt P19492+P19493) (P19492 whole entry): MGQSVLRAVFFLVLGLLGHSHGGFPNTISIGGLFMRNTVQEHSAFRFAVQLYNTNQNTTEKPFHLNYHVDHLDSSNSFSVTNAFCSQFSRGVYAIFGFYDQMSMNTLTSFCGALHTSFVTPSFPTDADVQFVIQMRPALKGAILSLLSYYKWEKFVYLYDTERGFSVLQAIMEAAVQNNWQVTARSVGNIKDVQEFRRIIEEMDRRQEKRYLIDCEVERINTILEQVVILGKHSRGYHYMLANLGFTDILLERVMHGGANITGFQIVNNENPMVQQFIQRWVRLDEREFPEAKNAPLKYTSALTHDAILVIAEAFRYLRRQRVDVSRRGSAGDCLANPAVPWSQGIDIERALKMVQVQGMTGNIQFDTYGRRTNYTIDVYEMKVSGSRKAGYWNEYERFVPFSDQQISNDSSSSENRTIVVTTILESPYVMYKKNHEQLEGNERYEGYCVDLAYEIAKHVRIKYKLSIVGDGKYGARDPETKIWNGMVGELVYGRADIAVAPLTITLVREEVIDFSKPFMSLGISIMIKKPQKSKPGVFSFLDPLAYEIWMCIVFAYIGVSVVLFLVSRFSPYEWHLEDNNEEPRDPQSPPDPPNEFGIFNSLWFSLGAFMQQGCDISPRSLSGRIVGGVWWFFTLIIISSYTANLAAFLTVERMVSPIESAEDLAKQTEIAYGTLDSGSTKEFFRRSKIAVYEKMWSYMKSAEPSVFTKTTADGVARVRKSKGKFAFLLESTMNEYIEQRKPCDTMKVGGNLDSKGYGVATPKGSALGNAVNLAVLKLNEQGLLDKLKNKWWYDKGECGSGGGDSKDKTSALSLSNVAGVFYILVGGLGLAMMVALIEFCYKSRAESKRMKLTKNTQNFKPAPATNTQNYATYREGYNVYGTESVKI
Chain of Glutamate receptor AMPA 3/4 (Rattus norvegicus, UniProt P19492+P19493) (P19493 whole entry): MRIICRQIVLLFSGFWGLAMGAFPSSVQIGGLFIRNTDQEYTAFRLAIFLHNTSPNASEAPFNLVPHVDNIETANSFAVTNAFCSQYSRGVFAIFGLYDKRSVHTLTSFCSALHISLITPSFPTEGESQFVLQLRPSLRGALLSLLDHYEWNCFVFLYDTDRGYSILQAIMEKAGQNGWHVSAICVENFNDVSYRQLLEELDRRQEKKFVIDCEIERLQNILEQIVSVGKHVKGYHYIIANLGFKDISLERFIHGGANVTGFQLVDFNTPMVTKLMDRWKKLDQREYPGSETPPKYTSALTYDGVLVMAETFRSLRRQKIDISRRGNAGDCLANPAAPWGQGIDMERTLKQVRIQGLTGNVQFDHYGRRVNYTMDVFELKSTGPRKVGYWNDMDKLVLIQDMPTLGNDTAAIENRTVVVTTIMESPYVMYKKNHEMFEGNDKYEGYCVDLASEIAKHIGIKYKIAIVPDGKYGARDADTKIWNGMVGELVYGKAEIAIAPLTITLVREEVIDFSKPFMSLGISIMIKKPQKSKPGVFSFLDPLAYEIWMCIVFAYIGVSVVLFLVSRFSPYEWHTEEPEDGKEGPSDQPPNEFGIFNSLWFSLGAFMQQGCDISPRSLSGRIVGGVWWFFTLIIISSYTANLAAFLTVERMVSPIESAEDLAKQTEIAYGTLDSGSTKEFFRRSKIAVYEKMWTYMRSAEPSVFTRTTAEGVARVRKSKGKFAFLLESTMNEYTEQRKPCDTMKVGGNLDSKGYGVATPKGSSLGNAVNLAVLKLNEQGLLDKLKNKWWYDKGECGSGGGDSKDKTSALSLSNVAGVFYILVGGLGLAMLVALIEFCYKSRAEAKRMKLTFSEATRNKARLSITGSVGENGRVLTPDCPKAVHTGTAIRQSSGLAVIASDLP

[9] = target: Glutamate receptor AMPA 3/4 (Homo sapiens, UniProt P42263+P48058); experiment: Inhibition of GluR3/4 expressed in Xenopus oocyte
Chain of Glutamate receptor AMPA 3/4 (Homo sapiens, UniProt P42263+P48058) (P48058 whole entry): as the sequence (P48058 whole entry) above
Chain of Glutamate receptor AMPA 3/4 (Homo sapiens, UniProt P42263+P48058) (P42263 whole entry): as the sequence (P42263 whole entry) above

Rattus norvegicus = species on record: Rattus norvegicus; experiment: Agonist activity at rat AMPA receptor assessed as change in EPSC amplitude; format: functional
[10] = Agonist activity at AMPA receptor in rat cortical neurons assessed as change in increase in AMPA current; format: functional
Glutamate receptor 4 [11] = target: Glutamate receptor 4 (Rattus norvegicus, UniProt P19493); experiment: Inhibition of rat recombinant GluR4 in cells
Chain of Glutamate receptor 4 (Rattus norvegicus, UniProt P19493) (P19493 whole entry): as the sequence (P19493 whole entry) above

[12] = Agonist activity at rat AMPA receptor assessed as AMPA-induced calcium uptake; format: functional

For `CC(=O)c1s/c(=N\c2ccc(OC(F)(F)F)cc2)n(CCO)c1C`, the pEC50 (Glutamate receptor 2 [1]) was greater than 3.70 and the Activity [2] was 15%.

Work on `CC(C)S(=O)(=O)NCCCCCCCCCNS(=O)(=O)C(C)C` yielded a pEC50 (Glutamate receptor 1) of 6.18.

For `CC(CNS(=O)(=O)C(C)C)c1ccc(Br)cc1` (stereo unspecified), the inhibition (Glutamate receptor 2 [3]) was 26%.

In the case of `O=C1CCCN1[C@H]1Cc2ccc(-n3cc(C4CC4)c(C(F)(F)F)n3)cc2C1`, the pEC50 (Glutamate receptor 2 [4]) was greater than 3.52.

With `CC(C)S(=O)(=O)NC[C@H](C)c1ccc(-c2ccc(CCNS(C)(=O)=O)cc2)cc1` [MIBAMPATOR] the pEC50 (Glutamate receptor 4 [5]) was 6.82.

`O=C1CCCN1Cc1ccc(-n2nc(C(F)(F)F)c3c2COCC3)cc1F` gave a pEC50 (Glutamate receptor 2 [4]) greater than 3.52.

For `CC(CNS(C)(=O)=O)c1ccc(C(C)(C)C)cc1` (stereo unspecified), the pEC50 (Glutamate receptor 4 [5]) was 5.92.

`CC(CNS(=O)(=O)C(C)C)c1ccc(-c2ccc(C#N)cc2)cc1` (stereo unspecified) gave a pEC50 (Glutamate receptor 1) of 5.25, a pEC50 (Glutamate receptor 2 [6]) of 5.84 and a pEC50 [7] of 6.54. It also gave a pEC50 (Glutamate receptor 3) of 5.78 and a pEC50 (Glutamate receptor 2 [1]) of 6.82.

With `O=C1c2cc3c(cc2OC2CCCN12)OCCO3` (stereo unspecified) the pEC50 [8] was 4.36 and the pEC50 (Glutamate receptor 1) was 4.68.

`O=C(c1ccc2c(c1)OCCO2)N1CCCCC1` gave a pEC50 [8] of 2.80.

For `O=C(c1ccc2nonc2c1)N1CCCCC1` [FARAMPATOR], the pEC50 [9] was 4.85.

Work on `CC(C)S(=O)(=O)N[C@H]1Cc2ccc(-n3nc(C(F)(F)F)c4c3CCCC4)cc2C1` yielded a pEC50 (Glutamate receptor 2 [4]) greater than 3.52.

With `CCN1CC[C@@H](c2ccc(-c3ccccc3)cc2)[C@H](NS(=O)(=O)C(C)C)C1` the pEC50 [7] was greater than 5.00.

With `COCc1cccc(C(=O)N2CCCCC2)c1` the Activity (Rattus norvegicus) was 25%.

Work on `CC(C)S(=O)(=O)NCCCCCCCNS(=O)(=O)C(C)C` yielded a pEC50 (Glutamate receptor 1) of 5.54.

For `CC1(C)CC(=O)C2=C(C1)OC(N)=C(C#N)C2c1ccc2ccccc2c1` (stereo unspecified), the pEC50 [9] was 5.80 and the EC2 [10] was 1.6 µM.

With `CC(C)S(=O)(=O)N[C@@H]1CN(C)C[C@@H]1c1ccc(-c2ccc(N(C)S(C)(=O)=O)cc2)cc1` the pEC50 (Glutamate receptor 2 [4]) was 5.80.

Molecule `O=C(Cn1nc(C(F)(F)F)c2c1CCCC2)Nc1sc2c(c1C(=O)NCCc1ccccn1)CCCC2` has a pEC50 (Glutamate receptor 1) greater than 5.00.

`O=S1(=O)N[C@H]2CCCN2c2ccc(Cl)cc21` showed an EC2 [10] of 60 µM.

In the case of `NS(=O)(=O)c1cc2c(cc1Cl)NC(C1CC3C=CC1C3)NS2(=O)=O` (stereo unspecified) [CYCLOTHIAZIDE], the EC2 [10] was 1.6 µM.

`O=C1c2cc3nnn(CCc4cccc(F)c4)c(=O)c3cc2OCN1C1CC1` gave an EC2 [10] of 0.1 µM.

In the case of `C[C@@H](CNS(C)(=O)=O)c1ccccc1`, the pEC50 (Glutamate receptor 2 [6]) was 2.70.

`CC(C)S(=O)(=O)N[C@@H]1CCC[C@@H]1c1ccc(I)cc1` showed a pEC50 (Glutamate receptor 4 [5]) of 6.64.

In the case of `O=C(c1ccc2nccnc2c1)N1CCCCC1` [CX516], the pEC50 [8] was 4.02, the Activity (Rattus norvegicus) was 68% and the pEC50 (Glutamate receptor 4 [5]) was 3.81 and < 3.00.

In the case of `CC(C)S(=O)(=O)NCCCCCCCCNS(=O)(=O)C(C)C`, the pEC50 (Glutamate receptor 1) was 6.04.

`CC(C)S(=O)(=O)N[C@@H]1CCC[C@@H]1c1ccc(Br)cc1` gave a pEC50 (Glutamate receptor 4 [5]) of 6.28 and a pEC50 (Glutamate receptor 2 [1]) of 6.28.

With `CN(C)C(=O)c1ccc(-n2nc(C(F)(F)F)c3c2CCOC3)cc1` the pEC50 (Glutamate receptor 2 [4]) was greater than 3.52 and the Activity [2] was 14%.

`C[C@H](CNS(C)(=O)=O)c1ccc(-c2ccc([C@@H](C)CNS(C)(=O)=O)cc2)cc1` gave a pEC50 (Glutamate receptor 4 [11]) of 6.06.

`COc1ccc(C(=O)N2CCCC2=O)cc1` gave a pEC50 [9] of less than 3.00 and a pEC50 [12] of less than 4.00.
